Where a SMILES comes first, the peptide text is derived from it. [ ]: non-standard residue; d: D form. The star is where a group is joined. Stearoyl = CCCCCCCCCCCCCCCCCC(=O)*; Nle = CCCC[C@H](N)C(=O)O
Key:
Assay type in all cases: cell-based
HT-29 human colon cancer = assay: MTS cell proliferation assay, SNH and chemotherapy; conditions: HT-29, 4 hour treatment with SNH followed by a 24 hour treatment (FIG. 11)
Method: NCI-H727 and LNCaP were grown in RPMI 1640 medium supplemented with 10% heat inactivated FCS, L-glutamine and antibiotics. HT-29 and CT-26 were grown in DMEM medium supplemented with 10% heat-inactivated FCS (fetal calf serum), L-glutamine and antibiotics. The cells were cultured in 5% CO2/95% air at […] and used during their exponential growth phase. Routinely, the cells which are adherent, were split when a subconfluent monolayer was formed. In different experiments, various concentration of FCS were used. For growth inhibition experiments, subconfluent adherent cells were washed with PBS and treated with trypsin/versene. The cells were pelleted and resuspended in medium to a final concentration of 75,000 cells/mL for NCI-H727. 50,000 cells/mL for LNCaP and HT-29 and 25000 cells/mL for CT-26. These different concentrations were used in order to avoid confluence in the wells at the end of the experiment and correspond to the different doubling times of the cell lines. […] On day 4, viable cell number was determined by a modified MTT assay i.e., MTS non-radioactive cell proliferation assay (Promega). […] Results were finally expressed as percentage of the control, which was obtained from the samples with no drug treatment. Dose-response curves were plotted using a Sigma-Plot software and statistically analyzed using Student test. […] On day 4 the number of viable cells was determined by MTS assay.

U-87 cells = assay: U-87 colony formation in soft agar; conditions: in vitro
Description: The effects of VIP receptor antagonists on glioblastoma cell lines were investigated.

[1] = test system: panel of 56 cancer cell lines; assay: NCI "compare analysis", panel of 56 cancer cell lines
Description: The mean value±S. D. of 8 determinations is indicated; *, p<0.05 using student's t-test. (SN)VIPhyb inhibited the growth of leukemia (CCRF-CEM), HL-60(TB), K-562, MOLT-4, RPMI-8226, SR), non-small cell lung cancer (A549, EKVX, HOP-62, HOP-92, H23, H322M, H460 and H522), colon cancer (COLO205, HCC-2998, HCT-116, HT29, KM12, SW-620), CNS cancer (SF-268, SF-295, SF-539, SNB-19, U251), melanoma (LOX IMVI, MALME-3M, M14, SK-MEL-2, SK-MEL-28, SK-MEL-5, UACC-257, UACC-62), ovarian cancer (IGROV1, OVCAR-3, OVCAR-5, OVCAR-8, SK-OV-3), renal cancer (786-0, A498, CAKI-1, RXF 393, SM12C, TK-l0), prostate cancer (PC-3, DU-145) and breast cancer (MCF-7, MDA-MB-231, HS 578T, MDA-MB-435, MDA-N and T-47D).

MCF-7 cells = assay: MTT colorimetric assay, breast cancer cells (Example 6); conditions: compared with VIPhyb
Method: The ability of VIP receptor antagonists to alter the growth of breast cancer cells was investigated in vitro using the MTT colorimetric. The semiautomated MTT assay measures reduction of a tetrazolium compound by tumor cells to formazan. The optical density at 570 nm was determined for 8 wells at each inhibitor concentration. Seeding densities were 5×10^4 cells/well and cells were grown in 96 well plates for 5 days.

[2] = test system: MCF-7 breast cancer cells; assay: MTT assay, Taxol with or without SNVIPhyb; conditions: 10 μM SNVIPhyb, MTT assay
Description: The ability of SNVIPhyb to inhibit cancer growth was investigated.

`CCCCCCCCCCCCCCCCCC(=O)N[C@@H](CCCCN)C(=O)N1CCC[C@H]1C(=O)N[C@@H](CCCNC(=N)N)C(=O)N[C@@H](CCCNC(=N)N)C(=O)N1CCC[C@H]1C(=O)N[C@@H](Cc1ccc(O)cc1)C(=O)N[C@H](C(=O)N[C@@H](CC(=O)O)C(=O)N[C@@H](CC(N)=O)C(=O)N[C@@H](Cc1ccc(O)cc1)C(=O)N[C@H](C(=O)N[C@@H](CCCNC(=N)N)C(=O)N[C@@H](CC(C)C)C(=O)N[C@@H](CCCNC(=N)N)C(=O)N[C@@H](CCCCN)C(=O)N[C@@H](CCC(N)=O)C(=O)N[C@@H](CCCC)C(=O)N[C@@H](C)C(=O)N[C@H](C(=O)N[C@@H](CCCCN)C(=O)N[C@@H](CCCCN)C(=O)N[C@@H](Cc1ccc(O)cc1)C(=O)N[C@@H](CC(C)C)C(=O)N[C@@H](CC(N)=O)C(=O)N[C@@H](CO)C(=O)N[C@H](C(=O)N[C@@H](CC(C)C)C(=O)N[C@@H](CC(N)=O)C(N)=O)[C@@H](C)CC)C(C)C)[C@@H](C)O)[C@@H](C)O` [SNH] (Stearoyl-KPRRPYTDNYTRLRKQ[Nle]AVKKYLNSILN-NH2) was tested, and the “effect of the combination with a different schedule” value (HT-29 human colon cancer) was “also effective”, the “relative potency at inhibiting U-87 colony formation” value (U-87 cells) was “more potent than VIP hybrid” and the “cell lines significantly inhibited” value ([1]; CNS cancer) was 5/5. The “cell lines whose proliferation was significantly inhibited” value ([1]; all cell lines tested) was 51 of 56, the “cell lines significantly inhibited” value ([1]; breast cancer) was 6/8 and the “cell lines significantly inhibited” value ([1]; colon cancer) was 6/7. The “cell lines significantly inhibited” value ([1]; leukemia) was 6/6, the “cell lines significantly inhibited” value ([1]; melanoma) was 8/8 and the “cell lines significantly inhibited” value ([1]; non-small cell lung cancer) was 7/7. For the same molecule, the “cell lines significantly inhibited” value ([1]; ovarian cancer) was 5/6, the “cell lines significantly inhibited” value ([1]; prostate cancer) was 2/2 and the “cell lines significantly inhibited” value ([1]; renal cancer) was 6/7. The “relative potency as inhibitor of proliferation” value (MCF-7 cells) was “more potent inhibitor than VIPhyb” and the “effect on MCF-7 breast cancer proliferation” value [2] was “little effect”.

Source: patent publication US6630124B1, “Combination therapy with VIP antagonist” (Ramot-University Authority for Applied Research and …, priority 1998, dated 2003)
